Tests used:
[1] = system: Mab strain ATCC 19977 and three clinical isolates (Mab122, Mab686, and UH01); assay: Static concentration time-kill (SCTK) assay; format: cell-based, Mycobacterium abscessus
Procedure: SCTK studies were conducted over 5 days in Middlebrook 7H9 broth supplemented with 10% (vol/vol) OADC, 0.2% (vol/vol) glycerol, and 0.05% (vol/vol) Tween 80 in duplicate. The efficacy of JDB/NA-1-157 and JDB/NA-208 was evaluated using Mab strain ATCC 19977 and three clinical isolates (Mab122, Mab686, and UH01) at an initial inoculum of 10^5.5–10^6.3 CFU/mL. […] Bacterial killing was assessed across a wide range of concentrations for JDB/NA-1-157 and JDB/NA-1-208 individually (0.0625–64.0 mg/L).
For the combination study, the concentrations of JDB/NA-1-157 and JDB/NA-1-208 were selected based on MIC results and time-killing profiles of the single-drug study, while the concentrations of other β-lactams and BLIs were chosen based on clinically relevant levels, determined from the predicted average unbound steady-state concentrations (fCss,avg) in plasma at clinically relevant doses ([27]). The drug concentrations used were JDB/NA-1-157, 1 mg/L; JDB/NA-1-208, 8 mg/L; imipenem, 12 mg/L; ceftaroline, 8 mg/L; cefuroxime, 8 mg/L; amoxicillin, 2 mg/L; avibactam, 4 mg/L; durlobactam, 12 mg/L; amikacin, 12 mg/L; clarithromycin, 0.3 mg/L; and cefoxitin, 7 mg/L. The SOC regimen was included for comparison of efficacy. On day 3, the broth was replaced with fresh broth containing the corresponding drug concentrations. For viable cell counts, 100 µL of undiluted or appropriately diluted samples was subcultured on Middlebrook 7H10 agar plates supplemented with 1% (vol/vol) OADC, 0.2% glycerol, and 0.05% (vol/vol) Tween 80. All samples were washed twice with sterile 0.9% saline prior to serial dilution or plating.

[2] = target: LDT3 (Mycobacteroides abscessus, UniProt B1MHQ4); assay: Mass spectrometric analysis of acyl-enzyme adducts; format: binding, Mycobacterium abscessus; settings: LDT3 (44,795); 1:10 molar ratio, 2 h; accuracy ±5 Da
Procedure: (§1) Truncated sequences of BlaMab (Δ1–30 blaMab), LDT1–5, DDC, PBP B, PonA2, and PBP-lipo (Δ1–41) were synthesized by Celtek Biosciences (Franklin, TN) and cloned into the pET28(a)+ vector. Purification of LDTs and PBPs was carried out as previously described ([15], [16], [20]). Briefly, clones were transformed into Escherichia coli BL21 (DE3), and protein expression was induced with 0.25 mM isopropyl β-d-1-thiogalactopyranoside. Cell pellets were resuspended in buffer containing 50 mM Tris (pH 8.0), 400 mM sodium chloride, and 1 mM Tris(2-carboxyethyl)phosphine hydrochloride and lysed by sonication. After centrifugation, the supernatant was purified using a His Prep FF column and eluted with 500 mM imidazole.
(§2) The purified proteins were incubated at room temperature with JDB/NA-1-157 and JDB/NA-1-208 at a molar ratio of 1:10 for 2 h. A quadrupole time-of-flight mass spectrometer (Waters Synapt-G2-Si) with electrospray ionization and a Waters Acquity H-Class UPLC system were used to analyze the samples. The liquid chromatography conditions were as follows: a BEH C18 column (1.7 µm, 2.1 × 50 mm) and a mobile phase consisting of 0.1% formic acid in water and 0.1% formic acid in acetonitrile, with a gradient elution from 10% to 90% acetonitrile over 11 min at a flow rate of 0.5 mL/min. The MS settings were optimized with a capillary voltage of 3 kV, a sampling cone voltage of 35 V, and source and desolvation temperatures of 100°C and 500°C, respectively. Gas flow rates were 100 L/h for the cone and 800 L/h for desolvation. The mass accuracy was maintained at ±5 Da.

[3] = target: LDT4 (Mycobacteroides abscessus, UniProt B1MKW1); assay: Mass spectrometric analysis of acyl-enzyme adducts; format: binding, Mycobacterium abscessus; settings: LDT4 (32,567); 1:10 molar ratio, 2 h; accuracy ±5 Da
Procedure: as §1, §2

[4] = target: LDT1 (Mycobacteroides abscessus, UniProt B1MDC1); assay: Apparent inhibition constant (nitrocefin, Dixon plot); format: biochemical, Mycobacterium abscessus; settings: Ki,app
Procedure: (§3) Steady-state kinetic studies with JDB/NA-1-157 and JDB/NA-1-208 were performed using purified LDTs and PBPs, including LDT1–5, PBP-B, PBP-lipo, and D,D-carboxypeptidase. The assays were conducted on a BioTek Synergy2 multimode reader equipped with Gen5 software. To determine the Michaelis constant (Km^NCF) for each LDT and PBP, a wide range of NCF concentrations was tested, while the enzyme concentrations were fixed. Absorbance changes at 482 nm were monitored over 10 min. Steady-state kinetic parameters (Vmax and Km) were derived by fitting the experimental data to the Henri–Michaelis–Menten equation using nonlinear least-squares regression in GraphPad Prism version 9. The reaction velocity (v) at a given substrate concentration ([S]) was calculated using equation 2: […]
(§4) The apparent inhibition constants (Ki,app) for JDB/NA-1-157 and JDB/NA-1-208 were determined under the following conditions: an NCF concentration of 5 × Km, fixed concentrations of LDT or PBP enzymes, and varying concentrations of JDB/NA-1-157 and JDB/NA-1-208. Absorbance changes at 482 nm were monitored over a 30 min period for each inhibitor concentration. The data were linearized using a Dixon plot, which involves plotting the reciprocal of the absorbance change (1/ΔA) against the concentrations of JDB/NA-1-157 or JDB/NA-1-208. Apparent Ki,app values were derived from the intersection points on the Dixon plot and were subsequently corrected for substrate concentration and enzyme affinity using equation 3:
(§5) (3) Ki,app=observed Ki,app/1+[NCF]/Km NCF.

[5] = target: LDT2 (Mycobacteroides abscessus, UniProt B1MMQ4); assay: as above; format: biochemical, Mycobacterium abscessus; settings: Ki,app
Procedure: as §3, §4, §5

[6] = target: PonA2 (Mycobacteroides abscessus, UniProt B1MFV7); assay: as above; format: biochemical, Mycobacterium abscessus; settings: Ki,app
Procedure: as §3, §4, §5

Sequence of LDT3 (B1MHQ4 entry or part of it): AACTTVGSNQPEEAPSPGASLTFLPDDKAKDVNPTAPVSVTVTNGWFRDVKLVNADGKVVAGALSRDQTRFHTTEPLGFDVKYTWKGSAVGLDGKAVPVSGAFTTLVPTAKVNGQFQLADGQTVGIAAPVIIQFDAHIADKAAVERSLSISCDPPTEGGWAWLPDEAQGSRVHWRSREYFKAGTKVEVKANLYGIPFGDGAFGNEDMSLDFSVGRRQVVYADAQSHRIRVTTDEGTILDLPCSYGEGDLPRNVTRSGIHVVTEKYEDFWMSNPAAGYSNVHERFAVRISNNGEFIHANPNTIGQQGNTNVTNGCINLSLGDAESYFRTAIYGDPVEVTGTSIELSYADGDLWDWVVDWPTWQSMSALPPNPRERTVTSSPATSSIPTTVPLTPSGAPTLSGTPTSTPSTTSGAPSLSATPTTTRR
Sequence of PonA2 (B1MFV7 entry or part of it): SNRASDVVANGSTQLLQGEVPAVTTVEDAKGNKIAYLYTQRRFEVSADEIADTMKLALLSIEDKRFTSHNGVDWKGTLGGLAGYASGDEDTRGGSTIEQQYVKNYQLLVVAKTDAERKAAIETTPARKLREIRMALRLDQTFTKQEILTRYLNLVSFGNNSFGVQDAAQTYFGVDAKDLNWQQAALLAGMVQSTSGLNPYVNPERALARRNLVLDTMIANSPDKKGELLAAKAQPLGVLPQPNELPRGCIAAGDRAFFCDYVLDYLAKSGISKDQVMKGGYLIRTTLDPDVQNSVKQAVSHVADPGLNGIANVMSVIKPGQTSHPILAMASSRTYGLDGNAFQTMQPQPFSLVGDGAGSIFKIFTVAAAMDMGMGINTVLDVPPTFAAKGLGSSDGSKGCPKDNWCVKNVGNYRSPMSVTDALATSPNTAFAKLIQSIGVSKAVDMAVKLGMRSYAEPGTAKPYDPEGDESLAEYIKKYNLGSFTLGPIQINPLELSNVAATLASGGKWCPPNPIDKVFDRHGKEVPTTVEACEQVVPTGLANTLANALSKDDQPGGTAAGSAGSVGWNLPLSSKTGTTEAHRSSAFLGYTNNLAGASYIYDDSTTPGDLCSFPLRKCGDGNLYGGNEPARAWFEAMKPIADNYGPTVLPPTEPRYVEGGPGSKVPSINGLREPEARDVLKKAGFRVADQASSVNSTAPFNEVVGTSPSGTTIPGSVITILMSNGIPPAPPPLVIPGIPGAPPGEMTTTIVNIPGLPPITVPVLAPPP
Sequence of LDT2 (B1MMQ4 entry or part of it): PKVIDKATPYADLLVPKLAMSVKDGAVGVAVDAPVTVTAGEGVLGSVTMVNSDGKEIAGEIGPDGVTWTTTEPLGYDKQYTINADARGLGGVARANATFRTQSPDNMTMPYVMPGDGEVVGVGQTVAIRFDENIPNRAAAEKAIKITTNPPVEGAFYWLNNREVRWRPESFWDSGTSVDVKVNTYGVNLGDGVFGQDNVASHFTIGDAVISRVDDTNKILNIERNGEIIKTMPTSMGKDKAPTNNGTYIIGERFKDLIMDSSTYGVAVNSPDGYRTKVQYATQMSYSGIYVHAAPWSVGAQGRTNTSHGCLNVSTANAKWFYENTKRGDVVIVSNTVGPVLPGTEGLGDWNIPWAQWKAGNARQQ
Sequence of LDT1 (B1MDC1 entry or part of it): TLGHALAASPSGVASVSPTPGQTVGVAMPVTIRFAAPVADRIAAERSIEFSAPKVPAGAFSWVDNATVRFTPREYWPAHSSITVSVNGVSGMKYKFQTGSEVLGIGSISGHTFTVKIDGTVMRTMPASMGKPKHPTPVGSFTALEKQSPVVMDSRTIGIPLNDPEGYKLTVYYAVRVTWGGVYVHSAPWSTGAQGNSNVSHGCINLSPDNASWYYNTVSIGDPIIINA
Sequence of LDT4 (B1MKW1 entry or part of it): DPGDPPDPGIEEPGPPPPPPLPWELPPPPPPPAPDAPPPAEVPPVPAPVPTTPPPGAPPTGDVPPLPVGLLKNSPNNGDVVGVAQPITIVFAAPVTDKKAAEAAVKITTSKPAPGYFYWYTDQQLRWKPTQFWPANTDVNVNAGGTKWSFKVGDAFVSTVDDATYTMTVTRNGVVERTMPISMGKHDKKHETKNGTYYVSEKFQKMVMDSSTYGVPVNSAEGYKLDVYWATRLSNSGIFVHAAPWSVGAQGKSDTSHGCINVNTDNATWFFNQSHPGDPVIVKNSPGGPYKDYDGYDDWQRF

Row | SMILES | bacterial killing in combination ([1]; 1 mg/L with BLIs (avibactam or durlobactam) or β-lactams (cefuroxime, ceftaroline, or amoxicillin), by day 3, ATCC 19977, Mab122, Mab686) | bacterial killing on addition of avibactam ([1]; ATCC 19977, JDB/NA-1-157 1 mg/L + avibactam 4 mg/L) | log10 CFU/mL reduction ([1]; single agent, 4 mg/L, over 5 days, ATCC 19977 and clinical isolates) | bacterial killing at high concentration ([1]; single agent, 16–64 mg/L, 5 days) | Mass of protein after incubation (mass shift) [2] | Mass of protein after incubation (mass shift) [3] | Ki [4] [nM] | Ki [5] [nM] | Ki [6] [nM] | effect of combining with avibactam on killing ([1]; 8 mg/L + avibactam 4 mg/L) | bacterial killing in combination ([1]; 8 mg/L with ceftaroline, cefuroxime, amoxicillin (with avibactam), or durlobactam) | log10 CFU killing ([1]; single agent, 64 mg/L)
1 | C[C@@H](O)[C@H]1C(=O)N2C(C(=O)O)=C(S[C@@H]3CN[C@H](C(=O)N(C)C)C3)C[C@]12C [JDB/NA-1-157] | near-complete eradication | up to 2.5 log10 CFU/mL | 1.5–2.0 log10 CFU/mL | near-complete eradication | 45,178 (+383) Da | 32,950 (+383) Da | 7980 | 130 | 7.82 | – | – | –
2 | CC[C@]12CC(S[C@@H]3CN[C@H](C(=O)N(C)C)C3)=C(C(=O)O)N1C(=O)[C@@H]2[C@@H](C)O [JDB/NA-1-208] | – | – | – | – | 45,194 (+397) Da | 32,964 (+397) Da | 1110 | 166 | 352 | no significant effect | near-complete eradication | ~ 3 log10 CFU

— paper PMC12326981, “Novel C5α-substituted carbapenems enhance Mycobacterium abscessus killing via selective target binding and reduced hydrolysis by BlaMab” (Antimicrobial Agents and Chemotherapy, 2025)
